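48-hour exposure; five concentrations; linearly interpolated endpoints. GI50 marks 50% less growth. At the TGI there is no net growth.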
Legend:
Test in all cases: NCI-60 cell line screen, 48 h
NCI-H226 lung = tested on: NCI-H226 lung
NCI-H23 lung = tested on: NCI-H23 lung
NCI-H522 lung = tested on: NCI-H522 lung
NCI/ADR-RES ovarian = tested on: NCI/ADR-RES ovarian
OVCAR-4 ovarian = tested on: OVCAR-4 ovarian
OVCAR-5 ovarian = tested on: OVCAR-5 ovarian
OVCAR-8 ovarian = tested on: OVCAR-8 ovarian
PC-3 prostate = tested on: PC-3 prostate
RPMI-8226 leukemia = tested on: RPMI-8226 leukemia
RXF 393 renal = tested on: RXF 393 renal
SF-268 CNS = tested on: SF-268 CNS
SF-295 CNS = tested on: SF-295 CNS
SF-539 CNS = tested on: SF-539 CNS
SK-MEL-2 melanoma = tested on: SK-MEL-2 melanoma
SK-MEL-28 melanoma = tested on: SK-MEL-28 melanoma
SK-MEL-5 melanoma = tested on: SK-MEL-5 melanoma
SK-OV-3 ovarian = tested on: SK-OV-3 ovarian
SN12C renal = tested on: SN12C renal
SNB-19 CNS = tested on: SNB-19 CNS
SNB-75 CNS = tested on: SNB-75 CNS
SR leukemia = tested on: SR leukemia
SW-620 colon = tested on: SW-620 colon
T-47D breast = tested on: T-47D breast
TK-10 renal = tested on: TK-10 renal
U251 CNS = tested on: U251 CNS
UACC-257 melanoma = tested on: UACC-257 melanoma
UACC-62 melanoma = tested on: UACC-62 melanoma
UO-31 renal = tested on: UO-31 renal

Cc1ccc(-c2nnc(SCc3ccc(O)c4ncccc34)o2)cc1 gave a TGI (NCI-H226 lung) of over 100000 nM, a GI50 (NCI-H23 lung) of 1470 nM and a TGI (NCI-H23 lung) of 13000 nM. It also gave a GI50 (NCI-H522 lung) of 2290 nM, a TGI (NCI-H522 lung) of over 100000 nM and a GI50 (NCI/ADR-RES ovarian) of 706 nM. The TGI (NCI/ADR-RES ovarian) was 7020 nM, the GI50 (OVCAR-4 ovarian) was 2450 nM and the TGI (OVCAR-4 ovarian) was over 100000 nM. The GI50 (OVCAR-5 ovarian) was 4820 nM, the TGI (OVCAR-5 ovarian) was over 100000 nM and the GI50 (OVCAR-8 ovarian) was 850 nM. It also gave a TGI (OVCAR-8 ovarian) of over 100000 nM, a GI50 (PC-3 prostate) of 457 nM and a TGI (PC-3 prostate) of over 100000 nM. For the same compound, the GI50 (RPMI-8226 leukemia) was 648 nM, the TGI (RPMI-8226 leukemia) was over 100000 nM and the GI50 (RXF 393 renal) was 1120 nM. The TGI (RXF 393 renal) was 32200 nM, the GI50 (SF-268 CNS) was 503 nM and the TGI (SF-268 CNS) was over 100000 nM. The GI50 (SF-295 CNS) was 1020 nM, the TGI (SF-295 CNS) was 5780 nM and the GI50 (SF-539 CNS) was 561 nM. It also gave a TGI (SF-539 CNS) of 5920 nM, a GI50 (SK-MEL-2 melanoma) of 2240 nM and a TGI (SK-MEL-2 melanoma) of 39400 nM. For the same compound, the GI50 (SK-MEL-28 melanoma) was 1040 nM, the TGI (SK-MEL-28 melanoma) was over 100000 nM and the GI50 (SK-MEL-5 melanoma) was 844 nM. It also gave a TGI (SK-MEL-5 melanoma) of 6950 nM, a GI50 (SK-OV-3 ovarian) of 1980 nM and a TGI (SK-OV-3 ovarian) of 6900 nM. For the same compound, the GI50 (SN12C renal) was 966 nM, the TGI (SN12C renal) was over 100000 nM and the GI50 (SNB-19 CNS) was 513 nM. It also gave a TGI (SNB-19 CNS) of 14300 nM, a GI50 (SNB-75 CNS) of 283 nM and a TGI (SNB-75 CNS) of 3930 nM. It also gave a GI50 (SR leukemia) of 568 nM, a TGI (SR leukemia) of 42700 nM and a GI50 (SW-620 colon) of 1060 nM. The TGI (SW-620 colon) was over 100000 nM, the GI50 (T-47D breast) was 1830 nM and the TGI (T-47D breast) was 7400 nM. For the same compound, the GI50 (TK-10 renal) was 1280 nM, the TGI (TK-10 renal) was 9240 nM and the GI50 (U251 CNS) was 444 nM. For the same compound, the TGI (U251 CNS) was over 100000 nM, the GI50 (UACC-257 melanoma) was 2330 nM and the TGI (UACC-257 melanoma) was 9300 nM. For the same compound, the GI50 (UACC-62 melanoma) was 1760 nM, the TGI (UACC-62 melanoma) was 4740 nM and the GI50 (UO-31 renal) was 567 nM. The TGI (UO-31 renal) was 3240 nM.

From PubChem BioAssay (NCI)
